Data: ChEMBL document CHEMBL1159345, “Eudistomins W and X, two new beta-carbolines from the micronesian tunicate Eudistoma sp” (2003)

What was measured:
Type in all cases: functional
Settings in all cases: read-out: IZ
Candida albicans [1] = test: Antimicrobial activity against Candida albicans at 10 ug/disk by agar diffusion assay
Escherichia coli [2] = test: Antimicrobial activity against Escherichia coli at 10 ug/disk by agar diffusion assay
Escherichia coli [3] = test: Antimicrobial activity against Escherichia coli at 5 ug/disk by agar diffusion assay
Staphylococcus aureus [4] = test: Antimicrobial activity against Staphylococcus aureus at 5 ug/disk by agar diffusion assay
Bacillus subtilis [5] = test: Antimicrobial activity against Bacillus subtilis at 5 ug/disk by agar diffusion assay
Bacillus subtilis [6] = test: Antimicrobial activity against Bacillus subtilis at 10 ug/disk by agar diffusion assay
Candida albicans [7] = test: Antimicrobial activity against Candida albicans at 5 ug/disk by agar diffusion assay
Staphylococcus aureus [8] = test: Antimicrobial activity against Staphylococcus aureus at 10 ug/disk by agar diffusion assay

Compound	zone of inhibition at 10 µg/disc (Candida albicans [1]) [mm]	zone of inhibition at 10 µg/disc (Escherichia coli [2]) [mm]	zone of inhibition at 5 µg/disc (Escherichia coli [3]) [mm]	zone of inhibition at 5 µg/disc (Staphylococcus aureus [4]) [mm]	zone of inhibition at 5 µg/disc (Bacillus subtilis [5]) [mm]	zone of inhibition at 10 µg/disc (Bacillus subtilis [6]) [mm]	zone of inhibition at 5 µg/disc (Candida albicans [7]) [mm]	zone of inhibition at 10 µg/disc (Staphylococcus aureus [8]) [mm]
Oc1ccc2[nH]c3c([C@@H](O)Cc4ccccc4)nccc3c2c1 [EUDISTOMIN W]	13	–	–	–	–	–	–	–
CN(C)C(Cc1ccccc1)c1nccc2c1[nH]c1ccc(O)cc12 (centres undefined) [EUDISTOMIN X]	18	20	15	11	17	18	17	12
